biological target: T1, human CB2 receptors (Homo sapiens, UniProt P34972); experiment: Affinity for the human CB2 cannabinoid receptors: inhibition of [3H]-CP55940 binding to transfected CHO-K1 cell membranes; conditions: [3H]-CP55940 (1 nM), CHO-K1 membranes expressing human CB2; Cheng-Prusoff corrected; x = Ki below 50 nM
T1 construct: expressed in transfected cells
Procedure: The affinity of the compounds of the present invention for the different sub-types of cannabinoid receptors was measured according to procedures analogous to those described hereafter for the human CB2 receptor.
Study of the Affinity of the Compounds for the Human CB2 Cannabinoid Receptors
The affinity of the compounds of the invention for the human CB2 receptors is determined by measuring the inhibition of the binding of [^3H]-CP55940 to transfected CHO-K1 cell membrane preparations.
The CHO-K1 cells expressing the human CB2 receptors in a stable fashion are cultured in an RPMI 1640 medium containing 10% foetal calf serum, 2 mM of glutamine, 100 U/ml of penicillin, 0.1 mg/ml of streptomycin and 0.5 mg/ml of G418. The cells are collected with 0.5 mM of EDTA and centrifuged at 500 g for 5 minutes at 4° C. The pellet is re-suspended in phosphate buffered saline medium (PBS) and centrifuged at 500 g for 5 minutes at 4° C. The pellet is re-suspended in a Tris 50 mM buffer medium at pH 7.4 and centrifuged at 500 g for 5 minutes at 4° C. The cells are lysed by sonication and centrifuged at 39,000 g for 10 minutes at 4° C. The pellet is re-suspended in the Tris 50 mM buffer medium at pH 7.4 and centrifuged at 50,000 g for 10 minutes at 4° C. The membranes obtained in this last pellet are stored at −80° C.
Measurement of the competitive inhibition of the binding of the [^3H]-CP55940 to the CB2 receptors is carried out in duplicate using 96-well polypropylene plates. The cell membranes (10 μg of proteins/well) are incubated with the [^3H]-CP55940 (1 nM) for 60 minutes at 25° C. in a Tris-HCl 50 mM buffer medium, pH 7.4, comprising 0.1% bovine serum albumin (BSA), 5 mM of MgCl2, and 50 μg/ml of bacitracin.
The bound [^3H]-CP55940 is separated from the free [^3H]-CP55940 by filtration through GF/C glass fibre filter plates (Unifilter, Packard) pre-impregnated with 0.1% polyethylenimine (P.E.I.), using a Filtermate 196 (Packard). The filters are washed with Tris-HCl 50 mM buffer, pH 7.4 at 0-4° C. and the radioactivity present is determined using a counter (Packard Top Count).
The specific binding is obtained by subtracting the non-specific binding (determined in the presence of 0.1 μM of WIN55212-2 from the total binding). The data are analyzed by computer-assisted non-linear regression (MDL). For each test, a Cheng-Prusoff correction is made in order to convert the IC50 to the inhibition constant, Ki.
where [L] is the concentration of the radioligand used in the test and Kd is the radioligand equilibrium dissociation constant.

T1 sequence (P34972 whole entry): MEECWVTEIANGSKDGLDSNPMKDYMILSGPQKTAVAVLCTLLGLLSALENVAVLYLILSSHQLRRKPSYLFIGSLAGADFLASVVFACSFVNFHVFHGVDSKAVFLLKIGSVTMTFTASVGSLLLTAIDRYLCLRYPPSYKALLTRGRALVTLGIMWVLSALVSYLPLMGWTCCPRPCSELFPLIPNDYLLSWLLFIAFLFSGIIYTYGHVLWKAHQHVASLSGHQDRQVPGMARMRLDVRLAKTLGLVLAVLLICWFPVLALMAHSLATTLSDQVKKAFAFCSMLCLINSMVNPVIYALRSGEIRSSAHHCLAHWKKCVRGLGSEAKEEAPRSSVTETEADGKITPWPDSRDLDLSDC

Row | Compound | Ki [nM]
1 | CN1CCN(c2ccc(CN3C(=O)C(C4CCCCC4)n4c3nc3ccccc3c4=O)cc2)CC1 (stereo not shown) [Example 5] | < 50
2 | CN1CCN(c2ccc(CN3C(=O)C(Cc4ccccc4)n4c3nc3ccccc3c4=O)cc2)CC1 (stereo not shown) [Example 12] | < 50
3 | CN1CCN(c2ccc(CN3C(=O)C4(Cc5ccccc5C4)n4c3nc3ccccc3c4=O)cc2)CC1 [Example 17] | < 50
4 | CN1CCN(c2ccc(CN3C(=O)CC(C)(C)n4c3nc3ccccc3c4=O)cc2)CC1 [Example 35] | < 50
5 | CC(C)C[C@H]1CC(=O)N(Cc2ccc(N3CCN(C)CC3)cc2)c2nc3ccccc3c(=O)n21 [Example 38] | < 50
6 | CN1CCN(c2ccc(CN3C(=O)CC(C4CCCCC4)n4c3nc3ccccc3c4=O)cc2)CC1 (stereo not shown) [Example 45] | < 50
7 | CN1CCN(c2ccc(CN3C(=O)CC(Cc4ccccc4)n4c3nc3ccccc3c4=O)cc2)CC1 (stereo not shown) [Example 46] | < 50
8 | CN1CCN(c2ccc(CN3C(=O)CC(CCc4ccccc4)n4c3nc3ccccc3c4=O)cc2)CC1 (stereo not shown) [Example 48] | < 50

The remaining lines, values ahead:

Row | Ki [nM] | Compound
9 | < 50 | CN1CCN(c2ccc(CN3C(=O)C(CC4CCCCC4)n4c3nc3ccccc3c4=O)cc2)CC1 (stereo not shown) [Example 1]
10 | < 50 | CN1CCN(c2ccc(CN3C(=O)C(c4ccc(-c5ccccc5)cc4)n4c3nc3ccccc3c4=O)cc2)CC1 (stereo not shown) [Example 2]
11 | < 50 | CN1CCN(c2ccc(CN3C(=O)C(CCC4CCCCC4)n4c3nc3ccccc3c4=O)cc2)CC1 (stereo not shown) [Example 4]
12 | < 50 | CN1CCN(c2ccc(CN3C(=O)C(c4ccc5ccccc5c4)n4c3nc3ccccc3c4=O)cc2)CC1 (stereo not shown) [Example 8]
13 | < 50 | CCCCC1(CCCC)C(=O)N(Cc2ccc(N3CCN(C)CC3)cc2)c2nc3ccccc3c(=O)n21 [Example 31]
14 | < 50 | CN1CCN(c2ccc(CN3C(=O)C(C)(C)Cn4c3nc3ccccc3c4=O)cc2)CC1 [Example 37]
15 | < 50 | CC(C)CC1CC(=O)N(Cc2ccc(N3CCN(C)CC3)cc2)c2nc3ccccc3c(=O)n21 (stereo not shown) [Example 43]
16 | < 50 | CN1CCN(c2ccc(CN3C(=O)CC(c4ccccc4)n4c3nc3ccccc3c4=O)cc2)CC1 (stereo not shown) [Example 44]

Reference: patent US20100144714A1, “DERIVATIVES OF IMIDAZO PYRIMIDO AND DIAZEPINE PYRIMIDINE-DIONE, AND USE THEREOF AS A DRUG” (SOCIETE DE CONSEILS DE RECHERCHES ET D'APPLICATIONS …, priority 2006, published 2010)
